Data set [1] has as its system AD patient fibroblasts AG04402. Nature of the data set: Rescue of AD patient fibroblasts from BSO plus iron-induced oxidative stress, AG04402. Format: cell-based. The note with it: Homo sapiens, Fibroblast. As for the experimental part: (§1) An initial screen was performed to identify the effectiveness of compounds for the amelioration of PD and AD. Test samples and solvent controls were tested for their ability to rescue PD and AD fibroblasts stressed by addition of L-buthionine-(S,R)-sulfoximine (BSO, a specific inhibitor of GSH synthetase) plus iron (e.g. iron citrate), in a similar manner as that described in Jauslin et al., Hum. Mol. Genet. 11(24):3055 (2002), Jauslin et al., FASEB J. 17:1972-4 (2003), and International Patent Application WO 2004/003565. This specific BSO-mediated cell death was prevented or ameliorated by administration of compounds described herein.
(§2) The AD experiments were performed as follows. PD experiments were performed in a similar manner; certain specific conditions are noted below in Table 1A.
(§3) MEM (a medium enriched in amino acids and vitamins) and Medium 199 (M199) with Earle's Balanced Salts (EBS), without phenol red, were purchased from Invitrogen. Fetal Calf Serum was obtained from Corning. […]
(§4) 100 microliters of Calcein AM (1 microM) in PBS+Ca+Mg was then added to each well. […] After that time fluorescence (excitation/emission wavelengths of 485 nm and 525 nm, respectively) was read on a Spectramax fluorescence reader. Data were analyzed using standard four-parameter curve fit algorithms (XLFit or Prism) to determine the EC50 concentration for each compound.

Data set [2] concerns AD patient fibroblasts AG11414. Nature of the data set: Rescue of AD patient fibroblasts from BSO plus iron-induced oxidative stress, AG11414. It is filed as cell-based. The note with it: Homo sapiens, Fibroblast. The protocol:
as §1, §2, §3, §4

Data set [3] relates to AD patient fibroblasts ND34730. Kind of data set: Rescue of AD patient fibroblasts from BSO plus iron-induced oxidative stress, ND34730. It is filed as cell-based. The settings on record: Homo sapiens, Fibroblast. As for the experimental part:
as §1, §2, §3, §4

Data set [4] in a line: Light sensitivity of C9 solutions. The note with it: room light wavelengths <450 nm. Format: physicochemical. The text has this:
The compounds of this invention can be prepared from readily available starting materials using general methods and procedures that will be apparent to one skilled in the art in view of the disclosure provided herein. It will be appreciated that where typical or preferred process conditions (i.e., reaction temperatures, times, mole ratios of reactants, solvents, pressures, etc.) are given, other process conditions can also be used unless otherwise stated. Optimum reaction conditions may vary with the particular reactants or solvent used, but such conditions can be determined by one skilled in the art by routine optimization procedures. […] If amber lighting is not available, then appropriate controls should be used to minimize solutions to light exposure e.g. aluminum foil wrapping, amber glassware
Test solutions on 1 g scale determined that 75-85% IPA/water gave good solubility (˜10:1 vol:wt), fine crystals that were filterable and solutions that could be heated and cooled to produce a predictable melt/crystallization. […] A hot filtration was required as a brown, material formed during crystallization when the solution was left exposed to room light for >1 h. This was only observed with the solution was exposed to light. Recovery was 92.7% of fine needles and UHPLC analysis of the supernatant was 91% a/a vs 99% for the solid indicating the supernatant was removing impurities. […]

The test system of data set [5] is AD patient fibroblasts ND41001. Nature of the data set: Rescue of AD patient fibroblasts from BSO plus iron-induced oxidative stress, ND41001. It is filed as cell-based. The settings on record: Homo sapiens, Fibroblast. As for the experimental part:
as §1, §2, §3, §4

Data set [6] can be described thus: Brain and plasma exposure of C9 in mice after oral dosing. It is filed as in vivo. The note with it: mouse, 300 mg/kg PO in sesame oil, C57BL/6 mice. As for the experimental part:
A 300 mg/kg dose of C9 was administered as a sesame oil solution via oral gavage to four C57BL/6 mice. Eight hours after compound administration, plasma and brain exposure were measured (Table 10).

Where [7] appears, read: Iron citrate (100 μM) + BSO (100 μM).
The mark [8] stands for this setting: Iron citrate (200 μM) + BSO (100 μM).
Where [9] appears, read: Iron citrate (50 μM) + BSO (50 μM).
Where [10] appears, read: Iron citrate (100 μM) + BSO (25 μM).

pEC50: −log10 of the molar value. Read-outs that look alike come from different tables or passages of the source.

As a reminder, the pEC50 is the EC50 on a negative log10 scale, so that one unit is a factor of ten. Regarding `CCCCCCCCCC1=C(C)C(=O)C(C)=C(C)C1=O` [Compound C9, 2,3,5-trimethyl-6-nonylcyclohexa-2,5-diene-1,4-dione], the pEC50 in data set [1] (setting [7]) was 8.30; in data set [1] (setting [8]), 7.92; in data set [2] (setting [7]), 7.96; in data set [2] (setting [8]) it was 7.64; in data set [3] (setting [9]), 7.82; in data set [3] (setting [10]), 7.62. The negative logarithm of the EC50 (pEC50) was 7.89 in data set [5] (setting [9]) and 7.77 in data set [5] (setting [10]). Besides, in data set [4], the “light sensitivity of solutions” value is listed as “light sensitive”. Further, the Kp at 8 h in data set [6] (brain and plasma, read-out: Brain:Plasma Ratio) worked out at 7. In addition, the concentration at 8 h in data set [6] (brain, read-out: C9 [Brain]) came to 27900 ng/g; in data set [6] (plasma, read-out: C9 [Plasma]), 3830 ng/mL.

These data come from patent publication US20230339835A1, “2,3,5-TRIMETHYL-6-NONYLCYCLOHEXA-2,5-DIENE-1,4-DIONE FOR SUPPRESSING AND TREATING ALPHA-SYNUCLEINOPATHIES, TAUOPATHIES, AND OTHER DISORDERS” (PTC THERAPEUTICS, INC., priority 2018, published 2023).
